# Results published in PubChem BioAssay AID274 (DTP/NCI, 2004).
# Toxic doses and inconclusive results are not listed.
# System: BDF1 mice, Lewis lung carcinoma iv, survival T/C
# Assay: NCI In Vivo Anticancer Drug Screen. Data for tumor model Lewis Lung Carcinoma (intravenous) in B6D2F1 (BDF1) mice
# Settings: endpoint: median survival time, higher = longer survival
# Protocol: The antitumor activity of compounds was measured in mice bearing transplantable tumors. Survival or tumor size were measured and the results are expressed as the measurement made in the treated group (T) divided by the measurement made in the vehicle treated control group (C). The tumor model used in this assay is Lewis Lung Carcinoma (intravenous) in B6D2F1 (BDF1) mice
# [1] = dose: 25.0 mg/kg/injection, schedule: Q01DX009 (ip), vehicle: saline
# [2] = dose: 50.0 mg/kg/injection, schedule: Q01DX009 (ip), vehicle: saline
# [3] = dose: 100.0 mg/kg/injection, schedule: Q01DX009 (ip), vehicle: saline
# [4] = dose: 12.5 mg/kg/injection, schedule: Q01DX009 (ip), vehicle: saline
smiles,measurement,setting,value
C=C(Cl)C(=NC(C)(C)C)Nc1ccccc1C,T/C,"dose: 3.12 mg/kg/injection, schedule: Q01DX009 (ip), vehicle: Klucel (hydroxypropylcellulose) (HPC)",100 % of control
same,T/C,"dose: 6.25 mg/kg/injection, schedule: Q01DX009 (ip), vehicle: Klucel (hydroxypropylcellulose) (HPC)",110 % of control
same,T/C,"dose: 12.5 mg/kg/injection, schedule: Q01DX009 (ip), vehicle: Klucel (hydroxypropylcellulose) (HPC)",107 % of control
same,T/C,"dose: 25.0 mg/kg/injection, schedule: Q01DX009 (ip), vehicle: Klucel (hydroxypropylcellulose) (HPC)",108 % of control
CCN(CC)CCOCCO,T/C,[1],110 % of control
same,T/C,[2],99 % of control
same,T/C,[3],101 % of control
same,T/C,"dose: 200.0 mg/kg/injection, schedule: Q01DX009 (ip), vehicle: saline",99 % of control
Nc1nc(/C=C(/O)c2ccccc2)c2ncn(C3OC(CO)C(O)C3O)c2n1 (stereo not given),T/C,[4],109 % of control
same,T/C,[1],107 % of control
same,T/C,[2],102 % of control
same,T/C,[3],104 % of control
CN1c2ccc3ccccc3c2Sc2ccc3ccccc3c21,T/C,"dose: 100.0 mg/kg/injection, schedule: Q01DX009 (ip), vehicle: saline with Tween-80",98 % of control
same,T/C,"dose: 200.0 mg/kg/injection, schedule: Q01DX009 (ip), vehicle: saline with Tween-80",98 % of control
same,T/C,"dose: 400.0 mg/kg/injection, schedule: Q01DX009 (ip), vehicle: saline with Tween-80",111 % of control
CC[C@](C)(O)C(=O)O[C@H]1C(=O)O[C@@H]2C[C@H]3C(C)=CC(=O)[C@@H](O)[C@]3(C)[C@H]3[C@@]4(O)OC[C@]32[C@@H]1[C@@H](C)[C@H]4O,T/C,"dose: 0.12 mg/kg/injection, schedule: Q01DX009 (ip), vehicle: steriod suspending solution",92 % of control
same,T/C,"dose: 0.25 mg/kg/injection, schedule: Q01DX009 (ip), vehicle: steriod suspending solution",106 % of control
same,T/C,"dose: 0.5 mg/kg/injection, schedule: Q01DX009 (ip), vehicle: steriod suspending solution",99 % of control
COCC(O)Cn1ccnc1[N+](=O)[O-] (stereo not given),T/C,"dose: 12.5 mg/kg/injection, schedule: Q01DX009 (ip), vehicle: water",96 % of control
same,T/C,"dose: 25.0 mg/kg/injection, schedule: Q01DX009 (ip), vehicle: water",92 % of control
same,T/C,"dose: 50.0 mg/kg/injection, schedule: Q01DX009 (ip), vehicle: water",96 % of control
same,T/C,"dose: 100.0 mg/kg/injection, schedule: Q01DX009 (ip), vehicle: water",100 % of control
same,T/C,"dose: 200.0 mg/kg/injection, schedule: Q01DX009 (ip), vehicle: water",92 % of control
same,T/C,"dose: 400.0 mg/kg/injection, schedule: Q01DX009 (ip), vehicle: water",96 % of control
CCC1OCCN1C(C)C (stereo not given),T/C,[1],95 % of control
same,T/C,[2],124 % of control
O=NN(CCCl)C(=O)NC1[C@H](O)CCC[C@@H]1O (stereo not given in full),T/C,"dose: 0.62 mg/kg/injection, schedule: Q01DX009 (ip), vehicle: saline",105 % of control
same,T/C,"dose: 1.25 mg/kg/injection, schedule: Q01DX009 (ip), vehicle: saline",120 % of control
same,T/C,"dose: 2.5 mg/kg/injection, schedule: Q01DX009 (ip), vehicle: saline",159 % of control
same,T/C,"dose: 5.0 mg/kg/injection, schedule: Q01DX009 (ip), vehicle: saline",278 % of control
O=C1C=CC(n2cc(F)c(=O)[nH]c2=O)O1 (stereo not given),T/C,"dose: 6.25 mg/kg/injection, schedule: Q01DX009 (ip), vehicle: saline",106 % of control
same,T/C,[4],96 % of control
same,T/C,[1],103 % of control
same,T/C,[2],119 % of control
C[C@]12CC[C@H]3[C@@H](CCC4=C[C@@H](OC5OCC(OC6OC(CO)C(O)C(O)C6O)C(O)C5O)CC[C@@]43C=O)[C@@]1(O)CCC2C1=CC(=O)OC1 (stereo not given in full),T/C,"dose: 0.16 mg/kg/injection, schedule: Q01DX009 (ip), vehicle: Klucel (hydroxypropylcellulose) (HPC)",99 % of control
same,T/C,"dose: 0.31 mg/kg/injection, schedule: Q01DX009 (ip), vehicle: Klucel (hydroxypropylcellulose) (HPC)",100 % of control
same,T/C,"dose: 0.63 mg/kg/injection, schedule: Q01DX009 (ip), vehicle: Klucel (hydroxypropylcellulose) (HPC)",102 % of control
same,T/C,"dose: 1.25 mg/kg/injection, schedule: Q01DX009 (ip), vehicle: Klucel (hydroxypropylcellulose) (HPC)",99 % of control
same,T/C,"dose: 2.5 mg/kg/injection, schedule: Q01DX009 (ip), vehicle: Klucel (hydroxypropylcellulose) (HPC)",122 % of control
same,T/C,"dose: 5.0 mg/kg/injection, schedule: Q01DX009 (ip), vehicle: Klucel (hydroxypropylcellulose) (HPC)",122 % of control
O=P1(N(CCCl)CCCl)NCCCO1 (stereo not given),T/C,"dose: 39.0 mg/kg/injection, schedule: Q01DX001 (ip), vehicle: saline",119 % of control
same,T/C,"dose: 50.0 mg/kg/injection, schedule: Q01DX001 (ip), vehicle: saline",155 % of control
same,T/C,"dose: 78.0 mg/kg/injection, schedule: Q01DX001 (ip), vehicle: saline",174 % of control
same,T/C,"dose: 133.0 mg/kg/injection, schedule: Q10DX002 (ip), vehicle: saline",168 % of control
same,T/C,"dose: 200.0 mg/kg/injection, schedule: Q10DX002 (ip), vehicle: saline",155 % of control
